Four compounds from ChEMBL document CHEMBL1156398, “Four new bioactive pyrrole-derived alkaloids from the marine sponge Axinella brevistyla” (J Nat Prod, 2001) can be followed below.

SMILES strings stand for the structures. Values after ≈ are worked out from the molar mass of the structure shown. Active and inactive are the calls of the source. The rule behind the calls is not given here.

One assay deals with L1210. The experiment in a line: Cytotoxicity against mouse L1210 cells. Type of assay: functional, cell-based.
Assay [1] deals with Saccharomyces cerevisiae. Briefly: Antifungal activity against Saccharomyces cerevisiae YAT2285 erg6 mutant at <1.0 ug/disk by paper disk method. Type of assay: functional, organism-based.
Assay [2] has as its system Saccharomyces cerevisiae. The experiment in a line: Antifungal activity against Saccharomyces cerevisiae YAT2285 erg6 mutant at 30 ug/disk by paper disk method. Type of assay: functional, organism-based.
Assay [3] deals with Saccharomyces cerevisiae. Briefly: Antifungal activity against Saccharomyces cerevisiae YAT2285 erg6 mutant at 100 ug/disk by paper disk method. It is filed as functional, organism-based.

As usually defined, the IC50 is the concentration that gives 50% inhibition. Higher therefore signals a need for much substance. Consider `O=C1NC(=O)C(Br)=C1Br`, for which the IC50 with L1210 is 0.66 µg/mL (≈ 2.59 µM). Further, in the assay on Saccharomyces cerevisiae [1], the outcome was Active.
Turning to `NC1=NC2c3c([nH]c(Br)c3Br)C(=O)N3C[C@H](Cl)[C@H](O)C23N1` (some centres not stated), the IC50 with L1210 was 2.5 µg/mL (≈ 5.69 µM). In the assay with Saccharomyces cerevisiae [2], the outcome was Active.
As to `C[N+]1=CN[C@H](C(=O)[O-])C[C@@]1(C)COC(=O)c1cc(Br)c[nH]1`, the result with Saccharomyces cerevisiae [3] was Active.
`O=C1C=C(Br)C(=O)N1` showed an IC50 with L1210 of 1.1 µg/mL (≈ 6.25 µM). Moreover, in the assay with Saccharomyces cerevisiae [1], the outcome was Active.
